Test results from patent US9290496B2, “Purine derivatives” (PFIZER INC., priority 2013, dated 2016).
Read-outs that look alike come from different tables or passages of the source.

What was measured:
Format in all cases: cell-based
EGFR del/T790M (PC9-DRH) = molecular target: T1, EGFR del/T790M (PC9-DRH) (Homo sapiens, UniProt P00533, DEL746-750/T790M); assay: pEGFR Y1068 ELISA assay, PC9-DRH cells; settings: inhibition of phosphorylation of EGFR at Tyr1068; PC9-DRH cells (dacomitinib resistant); 2 hr compound incubation
T1 construct: detects endogenous levels of phospho-EGF Receptor (Tyr1068) protein; endogenous in cells; host or cells: PC9-DRH (dacomitinib-resistant derivative of PC9, generated in house)

[1] = molecular target: T2, EGFR wildtype, endogenous (A549) (Homo sapiens, UniProt P00533); assay: pEGFR Y1068 ELISA assay, A549 cells; settings: inhibition of phosphorylation of EGFR at Tyr1068; A549 NSCLC cells; 2 hr compound incubation, then stimulated 10 min with EGF (40 ng/mL)
T2 construct: A549 (EGFR wildtype, endogenous); host or cells: A549 (stimulated with EGF)
Procedure: Phosphorylation of EGFR at Y1068 was measured by PathScan® Phospho-EGF Receptor (Try1068) Sandwich ELISA kit (#7240, Cell Signaling Technology®, Danvers, Mass.). The PathScan® Phospho-EGF Receptor (Tyr1068) Sandwich ELISA Kit is a solid phase sandwich enzyme-linked immunosorbent assay (ELISA) that detects endogenous levels of phospho-EGF Receptor (Tyr1068) protein. […] All cells were cultured according to ATCC recommendations. A549, NCI-H1975, PC9, and NCI-H3255 cells were grown in RPMI media (Invitrogen, Carlsbad, Calif.) supplemented with 10% FBS (Sigma, St Louis, Mo.), and with 1% Penn/Strep (Invitrogen). PC9-DRH cells were grown in RPMI with 10% FBS and 1 μM dacomitinib.
Cells were plated at 40,000/well in complete culture media (50 μL/well) on the bottom of clear tissue culture treated microtiter plates (#3595, Corning Inc, Corning, N.Y.) and allowed to adhere overnight at 37° C., 5% CO2. The following day, compound dilution plates were prepared in 96 well clear V-bottom 0.5 mL polypropylene block plates (#3956, Corning, Inc). Each compound was prepared as a DMSO stock solution (10 mM). Compounds were tested in duplicate on each plate, with an 11-point serial dilution curve (1:3 dilution). Compound treatment (50 μL) was added from the compound dilution plate to the cell plate. […] Plates were then incubated for 2 hr at 37° C., 5% CO2. For A549 (EGFR wildtype) assay, cells were plated in full-serum (10%) media for 24 hr prior to compound treatment; cells were treated in full serum media as described and then stimulated for 10 min with EGF (40 ng/mL/starvation media, Invitrogen). Immediately prior to the end of the incubation, ice-cold lysis buffer was prepared (1× Cell Lysis Buffer (#9803, Cell Signaling Technology), 1 mM sodium orthovanadate (Na3VO4, #96508, Sigma), 1 mM phenylmethanesulfonyl fluoride (PMSF, 52332, CalBiochem/EMD Chemicals), complete Mini EDTA-free Protease Inhibitor Cocktail Tablet (1 tablet/10 mL, #11836170001, Roche, Indianapolis, Ind.), and PhosSTOP Phosphatase Inhibitor Cocktail Tablet (1 tablet/10 mL, #04906837001, Roche) in pure water. At the end of 2 hr, media was flicked off and cells were washed once with ice-cold 1 mM Na3VO4 in PBS (100 μL/well, Invitrogen). The wash was then flicked off and ice-cold lysis buffer was added to the cells (50 μL/well). The plate was shaken for 20-30 min at 4° C. to completely lyse the cells. Sample diluent (50 μL/well) was added to the ELISA plate, and the lysate (50 μL) was diluted into the sample diluent in each well of the ELISA plate. Plates were sealed and incubated overnight at 4° C. with shaking. The next day, wells were washed four times with 1× Wash Buffer; plates were taped on lint-free paper after the final wash prior to adding Add Detection Antibody (green, 100 μL/well) to each well and incubating for 1 hr at 37° C. After incubation, wells were washed as described. HRP-Linked secondary antibody (red, 100 μL/well) was added to each well and incubated for 30 min at 37° C. After incubation, the wells were washed as described. TMB Substrate (100 μL/well) was added to each well and the plate incubated for 10 min at 37° C. or 30 min at rt maximum. Stop Solution (100 μL/well) was added to each well at the end of the incubation and plates were shaken gently for a few seconds. Absorbance was read at 450 nm within 30 min after addition of Stop Solution on a PerkinElmer EnVision Excite Multilabel Reader Method for Absorbance or on a Molecular Devices SpectraMax^384 Reader for absorbance. Data were analyzed using a four-parameter fit in Microsoft Excel.

[2] = molecular target: T3, EGFR L858R+T790M, endogenous (NCI-H1975) (Homo sapiens, UniProt P00533, L858R/T790M); assay: pEGFR Y1068 ELISA assay, NCI-H1975 cells; settings: inhibition of phosphorylation of EGFR at Tyr1068; NCI-H1975 NSCLC cells; 2 hr compound incubation
T3 construct: NCI-H1975 (EGFR L858R+T790M, endogenous); host or cells: NCI-H1975

EGFR L858R (NCI-H3255) = molecular target: T4, EGFR L858R (NCI-H3255) (Homo sapiens, UniProt P00533, L858R); assay: pEGFR Y1068 ELISA assay, NCI-H3255 cells
T4 construct: detects endogenous levels of phospho-EGF Receptor (Tyr1068) protein; host or cells: NCI-H3255
Procedure: (§1) The PathScan® Phospho-EGF Receptor (Tyr1068) Sandwich ELISA Kit is a solid phase sandwich enzyme-linked immunosorbent assay (ELISA) that detects endogenous levels of phospho-EGF Receptor (Tyr1068) protein. […] NCI-H3255 cells were licensed from NCI. […] All cells were cultured according to ATCC recommendations. A549, NCI-H1975, PC9, and NCI-H3255 cells were grown in RPMI media (Invitrogen, Carlsbad, Calif.) supplemented with 10% FBS (Sigma, St Louis, Mo.), and with 1% Penn/Strep (Invitrogen).
(§2) Each compound was prepared as a DMSO stock solution (10 mM). Compounds were tested in duplicate on each plate, with an 11-point serial dilution curve (1:3 dilution). Compound treatment (50 μL) was added from the compound dilution plate to the cell plate. […] Plates were then incubated for 2 hr at 37° C., 5% CO2. […] The wash was then flicked off and ice-cold lysis buffer was added to the cells (50 μL/well). The plate was shaken for 20-30 min at 4° C. to completely lyse the cells. Sample diluent (50 μL/well) was added to the ELISA plate, and the lysate (50 μL) was diluted into the sample diluent in each well of the ELISA plate. Plates were sealed and incubated overnight at 4° C. with shaking. The next day, wells were washed four times with 1× Wash Buffer; plates were taped on lint-free paper after the final wash prior to adding Add Detection Antibody (green, 100 μL/well) to each well and incubating for 1 hr at 37° C. After incubation, wells were washed as described. HRP-Linked secondary antibody (red, 100 μL/well) was added to each well and incubated for 30 min at 37° C. After incubation, the wells were washed as described. TMB Substrate (100 μL/well) was added to each well and the plate incubated for 10 min at 37° C. or 30 min at rt maximum. Stop Solution (100 μL/well) was added to each well at the end of the incubation and plates were shaken gently for a few seconds. […] Data were analyzed using a four-parameter fit in Microsoft Excel.

EGFR del (PC9) = molecular target: T5, EGFR del (PC9) (Homo sapiens, UniProt P00533, DEL746-750); assay: pEGFR Y1068 ELISA assay, PC9 cells; settings: inhibition of phosphorylation of EGFR at Tyr1068; PC9 NSCLC cells; 2 hr compound incubation
T5 construct: detects endogenous levels of phospho-EGF Receptor (Tyr1068) protein; host or cells: PC9
Procedure: as §1, §2

[3] = inhibition of phosphorylation of EGFR at Tyr1068, NCI-H3255 NSCLC cells, 2 hr compound incubation

T4 sequence (P00533 25-1210 L858R): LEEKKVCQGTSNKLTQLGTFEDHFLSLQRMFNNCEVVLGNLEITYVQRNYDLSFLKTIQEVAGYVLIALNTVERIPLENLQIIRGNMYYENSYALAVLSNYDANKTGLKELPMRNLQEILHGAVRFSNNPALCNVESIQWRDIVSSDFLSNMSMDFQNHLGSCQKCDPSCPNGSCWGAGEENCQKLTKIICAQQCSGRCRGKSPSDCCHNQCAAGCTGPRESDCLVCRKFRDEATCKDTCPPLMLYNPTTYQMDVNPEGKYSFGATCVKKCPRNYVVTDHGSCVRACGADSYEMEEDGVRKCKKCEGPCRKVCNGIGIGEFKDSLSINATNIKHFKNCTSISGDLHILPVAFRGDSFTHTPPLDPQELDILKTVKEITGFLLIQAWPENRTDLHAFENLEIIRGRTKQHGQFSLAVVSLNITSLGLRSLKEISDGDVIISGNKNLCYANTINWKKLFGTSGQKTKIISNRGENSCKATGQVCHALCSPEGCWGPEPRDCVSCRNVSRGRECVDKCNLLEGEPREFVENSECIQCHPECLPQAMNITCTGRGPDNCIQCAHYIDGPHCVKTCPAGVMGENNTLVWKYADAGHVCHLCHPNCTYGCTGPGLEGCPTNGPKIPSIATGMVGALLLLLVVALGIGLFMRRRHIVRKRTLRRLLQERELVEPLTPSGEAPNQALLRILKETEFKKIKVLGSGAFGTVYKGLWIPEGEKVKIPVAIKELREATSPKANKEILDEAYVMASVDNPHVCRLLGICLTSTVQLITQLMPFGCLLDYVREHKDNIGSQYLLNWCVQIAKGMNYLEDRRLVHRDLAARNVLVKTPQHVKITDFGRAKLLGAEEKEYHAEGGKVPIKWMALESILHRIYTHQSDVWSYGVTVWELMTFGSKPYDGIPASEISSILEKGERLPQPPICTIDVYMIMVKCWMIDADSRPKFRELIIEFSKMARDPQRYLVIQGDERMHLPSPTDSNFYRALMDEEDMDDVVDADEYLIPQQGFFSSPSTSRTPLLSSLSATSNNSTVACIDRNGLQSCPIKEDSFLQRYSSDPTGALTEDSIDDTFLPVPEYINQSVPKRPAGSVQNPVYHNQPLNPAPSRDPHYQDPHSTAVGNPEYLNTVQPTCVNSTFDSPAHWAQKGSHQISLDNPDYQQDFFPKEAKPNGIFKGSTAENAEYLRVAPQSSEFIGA
T3 sequence (P00533 25-1210 T790M/L858R): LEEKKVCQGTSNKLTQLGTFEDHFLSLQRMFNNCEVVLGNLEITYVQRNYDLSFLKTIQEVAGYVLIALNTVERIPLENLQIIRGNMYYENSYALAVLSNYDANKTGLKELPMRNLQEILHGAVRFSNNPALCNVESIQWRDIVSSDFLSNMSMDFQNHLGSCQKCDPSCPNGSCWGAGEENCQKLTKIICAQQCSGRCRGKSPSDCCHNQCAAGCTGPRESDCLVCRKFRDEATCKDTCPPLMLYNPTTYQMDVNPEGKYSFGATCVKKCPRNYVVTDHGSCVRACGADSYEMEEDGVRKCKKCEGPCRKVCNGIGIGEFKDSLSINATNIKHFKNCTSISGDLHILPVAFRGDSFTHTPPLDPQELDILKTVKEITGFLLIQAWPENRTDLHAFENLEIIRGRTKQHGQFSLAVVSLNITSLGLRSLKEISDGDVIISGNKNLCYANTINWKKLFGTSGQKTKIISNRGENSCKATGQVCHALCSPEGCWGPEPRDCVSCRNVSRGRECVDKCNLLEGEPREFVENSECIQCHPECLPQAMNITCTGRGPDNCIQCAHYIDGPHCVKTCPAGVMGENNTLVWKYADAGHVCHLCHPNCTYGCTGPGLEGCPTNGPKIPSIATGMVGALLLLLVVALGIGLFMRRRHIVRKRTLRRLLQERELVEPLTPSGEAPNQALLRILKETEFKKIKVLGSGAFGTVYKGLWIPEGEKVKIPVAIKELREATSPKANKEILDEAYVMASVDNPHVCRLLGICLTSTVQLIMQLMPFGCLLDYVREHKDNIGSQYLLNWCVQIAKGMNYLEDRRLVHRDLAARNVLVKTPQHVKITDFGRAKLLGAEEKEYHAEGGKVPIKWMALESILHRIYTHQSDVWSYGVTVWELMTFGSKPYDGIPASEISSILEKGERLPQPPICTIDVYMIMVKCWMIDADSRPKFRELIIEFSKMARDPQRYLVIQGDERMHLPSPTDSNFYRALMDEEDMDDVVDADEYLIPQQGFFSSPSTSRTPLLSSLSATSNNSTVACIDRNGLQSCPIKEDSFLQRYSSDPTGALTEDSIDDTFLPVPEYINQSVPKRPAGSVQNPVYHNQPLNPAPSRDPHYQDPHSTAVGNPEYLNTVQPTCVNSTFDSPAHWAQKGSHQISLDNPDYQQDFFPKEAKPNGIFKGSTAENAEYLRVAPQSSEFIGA
T2 sequence (P00533 25-1210): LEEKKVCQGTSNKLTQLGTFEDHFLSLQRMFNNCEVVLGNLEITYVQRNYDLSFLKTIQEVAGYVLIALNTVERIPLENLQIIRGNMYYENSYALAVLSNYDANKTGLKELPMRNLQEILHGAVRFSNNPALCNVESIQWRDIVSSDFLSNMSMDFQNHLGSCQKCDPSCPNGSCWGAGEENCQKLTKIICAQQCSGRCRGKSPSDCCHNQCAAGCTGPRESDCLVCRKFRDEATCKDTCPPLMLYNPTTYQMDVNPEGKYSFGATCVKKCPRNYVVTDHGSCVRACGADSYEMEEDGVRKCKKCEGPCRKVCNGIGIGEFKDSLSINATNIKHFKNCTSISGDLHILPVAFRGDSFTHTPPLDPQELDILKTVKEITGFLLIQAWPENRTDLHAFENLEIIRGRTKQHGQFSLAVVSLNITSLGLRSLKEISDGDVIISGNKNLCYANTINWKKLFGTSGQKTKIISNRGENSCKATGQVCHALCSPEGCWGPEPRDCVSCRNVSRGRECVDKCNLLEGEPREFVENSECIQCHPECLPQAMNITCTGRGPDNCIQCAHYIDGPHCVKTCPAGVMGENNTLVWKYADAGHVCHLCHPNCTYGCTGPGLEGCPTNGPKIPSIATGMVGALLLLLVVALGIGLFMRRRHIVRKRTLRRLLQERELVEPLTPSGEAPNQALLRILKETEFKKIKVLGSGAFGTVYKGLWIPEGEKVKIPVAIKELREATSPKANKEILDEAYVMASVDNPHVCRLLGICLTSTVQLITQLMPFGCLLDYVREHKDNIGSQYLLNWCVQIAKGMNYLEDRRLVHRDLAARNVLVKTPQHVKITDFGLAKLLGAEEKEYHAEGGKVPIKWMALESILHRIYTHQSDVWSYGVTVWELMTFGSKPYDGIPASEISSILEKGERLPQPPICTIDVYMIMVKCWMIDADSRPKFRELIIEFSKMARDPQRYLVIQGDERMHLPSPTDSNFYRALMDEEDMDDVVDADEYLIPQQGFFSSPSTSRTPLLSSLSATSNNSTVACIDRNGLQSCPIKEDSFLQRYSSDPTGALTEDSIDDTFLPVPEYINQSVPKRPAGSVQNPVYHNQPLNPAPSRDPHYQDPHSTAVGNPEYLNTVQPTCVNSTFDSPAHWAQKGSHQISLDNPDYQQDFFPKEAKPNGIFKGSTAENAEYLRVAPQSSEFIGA
T5 sequence (P00533 with tags, fused parts or gaps DEL746-750): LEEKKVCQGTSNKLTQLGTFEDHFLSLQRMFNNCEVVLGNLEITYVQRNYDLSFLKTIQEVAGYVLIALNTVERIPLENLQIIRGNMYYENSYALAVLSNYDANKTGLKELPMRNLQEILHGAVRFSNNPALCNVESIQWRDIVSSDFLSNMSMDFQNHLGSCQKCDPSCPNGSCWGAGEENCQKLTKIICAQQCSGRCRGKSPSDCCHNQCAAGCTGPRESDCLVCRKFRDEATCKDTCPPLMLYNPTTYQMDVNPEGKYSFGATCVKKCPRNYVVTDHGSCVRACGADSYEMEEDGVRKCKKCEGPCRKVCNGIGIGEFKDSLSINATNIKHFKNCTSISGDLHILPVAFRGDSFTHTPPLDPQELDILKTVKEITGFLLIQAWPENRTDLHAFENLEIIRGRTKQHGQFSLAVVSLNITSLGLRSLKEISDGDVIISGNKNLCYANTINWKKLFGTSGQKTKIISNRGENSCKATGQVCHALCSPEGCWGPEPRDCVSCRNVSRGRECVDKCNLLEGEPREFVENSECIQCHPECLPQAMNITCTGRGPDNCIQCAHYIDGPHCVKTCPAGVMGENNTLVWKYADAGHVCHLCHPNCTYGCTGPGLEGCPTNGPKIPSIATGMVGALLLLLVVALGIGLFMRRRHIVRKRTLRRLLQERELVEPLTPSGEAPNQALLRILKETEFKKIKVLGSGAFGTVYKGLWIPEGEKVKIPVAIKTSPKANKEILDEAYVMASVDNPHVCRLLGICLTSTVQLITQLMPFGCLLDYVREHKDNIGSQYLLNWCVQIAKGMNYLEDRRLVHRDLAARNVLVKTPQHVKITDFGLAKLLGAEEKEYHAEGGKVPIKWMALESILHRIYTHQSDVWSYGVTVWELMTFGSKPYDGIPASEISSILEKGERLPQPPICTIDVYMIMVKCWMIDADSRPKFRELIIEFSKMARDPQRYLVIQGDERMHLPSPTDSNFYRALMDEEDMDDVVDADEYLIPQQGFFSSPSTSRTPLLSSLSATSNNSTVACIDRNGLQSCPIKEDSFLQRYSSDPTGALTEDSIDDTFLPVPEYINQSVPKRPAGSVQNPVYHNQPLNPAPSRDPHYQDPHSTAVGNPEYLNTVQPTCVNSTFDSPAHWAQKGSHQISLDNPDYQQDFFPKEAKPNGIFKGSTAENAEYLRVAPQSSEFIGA

SMILES	IC50 (EGFR del/T790M (PC9-DRH)) [nM]	IC50 [1] [nM]	IC50 [2] [nM]	IC50 (EGFR L858R (NCI-H3255)) [nM]	IC50 (EGFR del (PC9)) [nM]	IC50 (EGFR L858R (NCI-H3255); [3]) [nM]
C=CC(=O)N[C@@H]1CN(c2nc(Nc3cnn(C)c3)c3ncn(C(C)C)c3n2)C[C@@H]1OC (single isomer, unassigned) [Example 50, N-((cis*)-1-(9-isopropyl-6((1-methyl-1H-pyrazol-4-yl)amino)-9H-purin-2-yl)-4-methoxypyrrolidin-3-yl)acrylamide]	34	587	26	3	8	
C=CC(=O)N[C@@H]1CN(c2nc(Nc3cnn(C)c3)c3ncn(C(C)(C)C)c3n2)CC1F (stereo in doubt) [Example 49, N-((3R,4S)-1-(9-(tert-butyl)-6-((1-methyl-1H-pyrazol-4-yl)amino)-9H-purin-2-yl)-4-fluoropyrrolidin-3-yl)acrylamide]	2	787	21	3	8	
C=CC(=O)N[C@H]1CCN(c2nc(Nc3ccc(N4CCN(C)CC4)cc3)c3ncn(C(C)C)c3n2)C1 [Example 1, (S)-N-(1-(9-isopropyl-6-((4-(4-methylpiperazin-1-yl)phenyl)amino)-9H-purin-2-yl)pyrrolidin-3-yl)acrylamide]	18	277	19	19	22	
C=CC(=O)N[C@H]1CCN(c2nc(Nc3cnn(C)c3)c3ncn(C(C)C)c3n2)C1 [Example 4, (S)-N-(1-(9-isopropyl-6-((1-methyl-1H-pyrazol-4-yl)amino)-9H-purin-2-yl)pyrrolidin-3-yl)acrylamide]		652	52	59	52	
C=CC(=O)NC1(C)CN(c2nc(Nc3cnn(C)c3)c3ncn(C(C)C)c3n2)C1 [Example 13, N-(1-(9-isopropyl-6((1-methyl-1H-pyrazol-4-yl)amino)-9H-purin-2-yl)-3-methylazetidin-3-yl)acrylamide]	25	2440	40	80	40	
C=CC(=O)N1C[C@@H]2CN(c3nc(Nc4ccc(N5CCN(C)CC5)cc4)c4ncn(C(C)C)c4n3)C[C@@H]2C1 [Example 21, 1-((cis)-5-(9-isopropyl-6-((4-(4-methylpiperazin-1-yl)phenyl)amino)-9H-purin-2-yl)hexahydropyrrolo[3,4-c]pyrrol-2(1H)-yl)prop-2-en-1-one]	18	181	14		8	8
C=CC(=O)N(C)[C@H]1C[C@H](Oc2nc(Nc3ccc(N4CCN(C)CC4)cc3)c3ncn(C(C)C)c3n2)C1 [Example 29, N-((trans)-3-((9-isopropyl-6-((4-(4-methylpiperazin-1-yl)phenyl)amino)-9H-purin-2-yl)oxy)cyclobutyl)-N-methylacrylamide]	61	698	35	35	40	
C=CC(=O)NC1(C)CN(c2nc(Nc3cnn(C4CCN(C)CC4)c3)c3ncn(C(C)C)c3n2)C1 [Example 39, N-(1-(9-isopropyl-6-((1-(1-methylpiperidin-4-yl)-1H-pyrazol-4-yl)amino)-9H-purin-2-yl)-3-methylazetidin-3-yl)acrylamide]	10	2850	66		20	
C=CC(=O)N[C@H]1CCN(c2nc(Nc3cnn(C4CCN(C)CC4)c3)c3ncn(C(C)C)c3n2)C1 [Example 41, (S)-N-(1-(9-isopropyl-6-((1-(1-methylpiperidin-4-yl)-1H-pyrazol-4-yl)amino)-9H -purin-2-yl)pyrrolidin-3-yl)acrylamide]	3	3040	64	9	38	
C=CC(=O)N[C@H]1CCN(c2nc(Nc3cnn(C4CCN(C)C4)c3)c3ncn(C(C)C)c3n2)C1 (stereo partly drawn) [Example 45, N-((3S)-1-(9-isopropyl-6-((1-(1-methylpyrrolidin-3-yl)-1H-pyrazol-4-yl)amino)-9H -purin-2-yl)pyrrolidin-3-yl)acrylamide]	3	1910	26		7	
C=CC(=O)N[C@H]1CCN(c2nc(Nc3ccc(N4CCN(C)CC4)cc3)c3ncn(CCO)c3n2)C1 [Example 46, (S)-N-(1-(9-(2-hydroxyethyl)-6-((4-(4-methylpiperazin-1-yl)phenyl)amino)-9H -purin-2-yl)pyrrolidin-3-yl)acrylamide]		4190	387		31	7
C=CC(=O)N[C@@H]1CN(c2nc(Nc3cn(C4CCN(C)C4)nc3C)c3ncn(C(C)C)c3n2)C[C@H]1F (stereo partly drawn) [Example 55, N-((3R,4R)-4-fluoro-1-(9-isopropyl-6-((3-methyl-1-(1-methylpyrrolidin-3-yl)-1H -pyrazol-4-yl)amino)-9H-purin-2-yl)pyrrolidin-3-yl)acrylamide]	3	273	9	2	3	

Other lines, results leading:

IC50 (EGFR del/T790M (PC9-DRH)) [nM]	IC50 [1] [nM]	IC50 [2] [nM]	IC50 (EGFR L858R (NCI-H3255)) [nM]	IC50 (EGFR del (PC9)) [nM]	IC50 (EGFR L858R (NCI-H3255); [3]) [nM]	SMILES
2130	≥ 10000	6140		6650		C=CC(=O)N[C@@H]1CN(c2nc(Nc3cn(C)nc3C)c3ncn(C(C)C)c3n2)C[C@H]1F [Example 61, N-((3R,4R)-1-(6-((1,3-dimethyl-1H-pyrazol-4-yl)amino)-9-isopropyl-9H-purin-2-yl) -4-fluoropyrrolidin-3-yl)acrylamide]
		6	1	3		C=CC(=O)N[C@@H]1CN(c2nc(Nc3ccc(N4CCN(C)CC4)cc3)c3ncn(C(C)C)c3n2)C[C@H]1OC [Example 62, N-((3R,4R)-1-(9-isopropyl-6-((4-(4-methylpiperazin-1-yl)phenyl)amino)-9H-purin-2-yl)-4-methoxypyrrolidin-3-yl)acrylamide]
5	551	32		14		C=CC(=O)N[C@@H]1CN(c2nc(Nc3cnn(C)c3)c3ncn(C(C)C)c3n2)C[C@H]1OC [Example 63, N-((3R,4R)-1-(9-isopropyl-6-((1-methyl-1H-pyrazol-4-yl)amino)-9H-purin-2-yl)-4-methoxypyrrolidin-3-yl)acrylamide]
9	1260	14		11		C=CC(=O)N[C@@H]1CN(c2nc(Nc3cn(C4CCN(C)C4)nc3C)c3ncn(C(C)C)c3n2)C[C@H]1F (stereo partly drawn) [Example 65, N-((3R,4R)-4-fluoro-1-(9-isopropyl-6-((3-methyl-1-(1-methylpyrrolidin-3-yl)-1H -pyrazol-4-yl)amino)-9H-purin-2-yl)pyrrolidin-3-yl)acrylamide]
2	64	11	1			C=CC(=O)N[C@@H]1CN(c2nc(Nc3cn(C4CCN(C)C4)nc3OC)c3ncn(CC)c3n2)C[C@H]1F (stereo partly drawn) [Example 75, N-((3R,4R)-1-(9-ethyl-6-((3-methoxy-1-(1-methylpyrrolidin-3-yl)-1H-pyrazol-4-yl)amino)-9H-purin-2-yl)-4-fluoropyrrolidin-3-yl)acrylamide]
1	100	6	3	3		C=CC(=O)N[C@@H]1CN(c2nc(Nc3cn(C4CCN(C)C4)nc3OC)c3ncn(C)c3n2)C[C@H]1F (stereo partly drawn) [Example 79, N-((3R,4R)-4-fluoro-1-(6-((3-methoxy-1-(1-methylpyrrolidin-3-yl)-1H-pyrazol-4-yl)amino)-9-methyl-9H-purin-2-yl)pyrrolidin-3-yl)acrylamide]
8	575	19	15	21		C=CC(=O)N[C@@H]1CN(c2nc(Nc3cn(C4CCN(C)C4)nc3C)c3ncn(C)c3n2)C[C@H]1F (stereo partly drawn) [Example 81, N-((3R,4R)-4-fluoro-1-(9-methyl-6-((3-methyl-1-(1-methylpyrrolidin-3-yl)-1H -pyrazol-4-yl)amino)-9H-purin-2-yl)pyrrolidin-3-yl)acrylamide]
3	1200	15	9	45		C=CC(=O)N[C@@H]1CN(c2nc(Nc3cn(CC(C)O)nc3OC)c3ncn(C(C)C)c3n2)C[C@H]1F (stereo partly drawn) [Example 84, N-((3R,4R)-4-fluoro-1-(6-((1-(2-hydroxypropyl)-3-methoxy-1H-pyrazol-4-yl)amino)-9-isopropyl-9H-purin-2-yl)pyrrolidin-3-yl)acrylamide]
15	647	17	34	104		C=CC(=O)N[C@@H]1CN(c2nc(Nc3cnn([C@@H]4CCN(C)C4)c3C)c3ncn(C(C)C)c3n2)C[C@H]1F [Example 85, N-((3R,4R)-4-fluoro-1-(9-isopropyl-6-((5-methyl-1-((R)-1-methylpyrrolidin-3-yl) -1H-pyrazol-4-yl)amino)-9H-purin-2-yl)pyrrolidin-3-yl)acrylamide]
